The subject of the first assay is hypoxia-inducible endogenous VEGF expression. Description: Hypoxia-inducible endogenous VEGF expression ELISA in HeLa cells, dose-response EC50 (Table 3). It is filed as cell-based, human. The settings on record: HeLa cells, hypoxic conditions (1% O2), 24-48 hours, VEGF in conditioned media; read-out: ELISA EC50. Here is the method:
The ability of the Compounds to modulate hypoxia-inducible endogenous VEGF expression may be analyzed as follows. VEGF protein levels may be monitored by an ELISA assay (R&D Systems). Briefly, HeLa cells may be cultured for 24-48 hours under hypoxic conditions (1% O2, 5% CO2, balanced with nitrogen) in the presence or absence of a Compound. The conditioned media may then be assayed by ELISA, and the concentration of VEGF calculated from the standard ELISA curve of each assay.
A dose-response analysis may be performed using the ELISA assay and conditions described above. The conditions for the dose-response ELISA are analogous to those described above. A series of, e.g., seven different concentrations may be analyzed. In parallel, a dose-response cytotoxicity assay may be performed using Cell Titer Glo (Promega) under the same conditions as the ELISA to ensure that the inhibition of VEGF expression was not due to the cytotoxicity.
By EC50 is commonly meant the midpoint of the concentration-response curve. Take `C=CCOc1ccc(C2c3[nH]c4ccc(Cl)cc4c3CCN2C(=O)Oc2ccc(Cl)cc2)cc1` (stereo not shown) [Compound 400]: the EC50 was < 0.008 µM.

`Cc1ccc(C2c3[nH]c4ccc(Br)cc4c3CCN2C(=O)Oc2ccc(F)cc2)cc1` (stereo not shown) [Compound 403]: the EC50 is < 0.008 µM.

With `COc1ccc(C2c3[nH]c4ccc(Cl)cc4c3CCN2C(=O)Oc2ccc(F)cc2)cc1` (stereo not shown) [Compound 410], the EC50 was < 0.008 µM.

Consider `O=C(Oc1ccc(F)cc1)N1CCc2c([nH]c3ccc(Br)cc23)C1c1ccc(C(F)(F)F)cc1` (stereo not shown) [Compound 426], for which the EC50 was < 0.008 µM.

The same assay, now with this note: Homo sapiens, HeLa, read-out: ELISA EC50 μM.
In the case of `O=C(Oc1ccc(Cl)cc1)N1CCc2c([nH]c3ccc(Cl)cc23)C1c1ccc(OCCN2CCOCC2)cc1` (stereo not shown) [Compound 331], the EC50 is > 1 µM.

As to `CC(=O)N1CCN(CC(O)COc2ccc(C3c4[nH]c5ccc(Cl)cc5c4CCN3C(=O)Oc3ccc(Cl)cc3)cc2)CC1` (stereo not shown) [Compound 415], the EC50 was < 0.008 µM.

With `O=C(Oc1ccc(Cl)cc1)N1CCc2c([nH]c3ccc(Cl)cc23)C1c1ccc(OCCCN2CCCC2)cc1` (stereo not shown) [Compound 429], the EC50 is < 0.008 µM.

With `O=C(Oc1ccc(Cl)cc1)N1CCc2c([nH]c3ccc(Cl)cc23)C1c1ccc(OCCCN2CCCCC2)cc1` (stereo not shown) [Compound 433], the EC50 was < 0.008 µM.

Still in this assay, the particulars now being: Homo sapiens; HeLa cells, hypoxic conditions (1% O2), 24-48 hours, VEGF in conditioned media; read-out: ELISA EC50.
With `COc1ccc(OC(=O)N2CCc3c([nH]c4ccc(Br)cc34)[C@@H]2c2ccc(Cl)cc2)cc1` [#332], the EC50 was > 1 µM.

Take `O=C(Oc1ccc(F)cc1)N1CCc2c([nH]c3ccc(Cl)cc23)C1c1ccc(OCCNc2nccs2)cc1` (stereo not shown) [#837]: the EC50 is < 0.008 µM.

For the molecule `Cc1cnc(NCCOc2ccc(C3c4[nH]c5ccc(Cl)cc5c4CCN3C(=O)Oc3ccc(F)cc3)cc2)s1` (stereo not shown) [#838], the EC50 was < 0.008 µM.

For `O=C(Oc1ccc(Cl)cc1)N1CCc2c([nH]c3ccc(Cl)cc23)C1c1ccc(OCCNc2nccs2)cc1` (stereo not shown) [#841], the EC50 is < 0.008 µM.

With `Cc1cnc(NCCOc2ccc(C3c4[nH]c5ccc(Cl)cc5c4CCN3C(=O)Oc3ccc(Cl)cc3)cc2)s1` (stereo not shown) [#842], the EC50 was < 0.008 µM.

`O=C(Oc1ccc(Cl)cc1)N1CCc2c([nH]c3ccc(Cl)cc23)C1c1ccc(OCCNc2cccnc2)cc1` (stereo not shown) [#843]: the EC50 was < 0.008 µM.

With `COc1ccc(C2c3[nH]c4ccc(Cl)cc4c3CCN2C(=O)Oc2ccc(C)cc2)cc1` (stereo not shown) [Compound 17], the EC50 is < 0.008 µM.

In the case of `COc1ccc(C2c3[nH]c4ccc(Cl)cc4c3CCN2C(=O)Oc2ccccc2)cc1` (stereo not shown) [Compound 60], the EC50 was 0.008 to 0.04 µM.

For the molecule `O=C(Oc1ccccc1)N1CCc2c([nH]c3ccc(Br)cc23)C1c1ccccc1` (stereo not shown) [Compound 76], the EC50 lay within 0.008 to 0.04 µM.

Consider `O=C(Oc1ccccc1)N1CCc2c([nH]c3ccc(Cl)cc23)C1c1ccccc1` (stereo not shown) [Compound 121], for which the concentration giving a half-maximal response (EC50) fell in the range of 0.008 to 0.04 µM.

Consider `COc1ccc(C2c3[nH]c4ccc(Cl)cc4c3CCN2C(=O)O[C@H]2C[C@@H](C)CC[C@@H]2C(C)C)cc1` (stereo partly shown) [Compound 192], for which the concentration for a half-maximal effect (EC50) was 0.2 to 1 µM.

Turning to `COc1ccc(C2c3[nH]c4ccc(C)cc4c3CCN2C(=O)Oc2ccc(Cl)cc2)cc1` (stereo not shown) [Compound 341], the EC50 was in the range of 0.04 to 0.2 µM.

On to `Cc1ccc2[nH]c3c(c2c1)CCN(C(=O)Oc1ccc(Cl)cc1)C3c1ccc(C(C)C)cc1` (stereo not shown) [Compound 344], for which the concentration for a half-maximal effect (EC50) fell in the range of 0.008 to 0.04 µM.

Regarding `O=C(Oc1ccc(Cl)cc1)N1CCc2c([nH]c3ccc(Cl)cc23)C1c1ccc(S(=O)(=O)N2CCOCC2)cc1` (stereo not shown) [Compound 346], the EC50 is 0.008 to 0.04 µM.

Consider `Cc1ccc(C2c3[nH]c4ccc(Cl)cc4c3CCN2C(=O)Oc2ccc(Cl)cc2)cc1` (stereo not shown) [Compound 347], for which the EC50 was < 0.008 µM.

Take `CC(C)c1ccc(C2c3[nH]c4ccc(Cl)cc4c3CCN2C(=O)Oc2ccc(Cl)cc2)cc1` (stereo not shown) [Compound 348]: the EC50 was < 0.008 µM.

As to `N#Cc1ccc(C2c3[nH]c4ccc(Cl)cc4c3CCN2C(=O)Oc2ccc(Cl)cc2)cc1` (stereo not shown) [Compound 350], the EC50 was < 0.008 µM.

For the molecule `O=C(Oc1ccc(Cl)cc1)N1CCc2c([nH]c3ccc(Cl)cc23)C1c1ccc(Cl)cc1` (stereo not shown) [Compound 351], the EC50 lay within 0.008 to 0.04 µM.

For `Cc1ccc(C2c3[nH]c4ccc(Br)cc4c3CCN2C(=O)Oc2ccc(Cl)cc2)cc1` (stereo not shown) [Compound 353], the EC50 was < 0.008 µM.

On to `CC(C)c1ccc(C2c3[nH]c4ccc(Br)cc4c3CCN2C(=O)Oc2ccc(Cl)cc2)cc1` (stereo not shown) [Compound 354], for which the EC50 was < 0.008 µM.

As for `COc1ccc(C2c3[nH]c4ccc(Br)cc4c3CCN2C(=O)Oc2ccc(Cl)cc2)cc1` (stereo not shown) [Compound 355], the EC50 was < 0.008 µM.

Take `COc1ccc(OC(=O)N2CCc3c([nH]c4ccc(Cl)cc34)C2c2ccc(S(C)(=O)=O)cc2)cc1` (stereo not shown) [Compound 359]: the EC50 is 0.04 to 0.2 µM.

Regarding `CS(=O)(=O)c1ccc(C2c3[nH]c4ccc(Cl)cc4c3CCN2C(=O)Oc2ccc(Cl)cc2)cc1` (stereo not shown) [Compound 360], the EC50 lay within 0.008 to 0.04 µM.

Regarding `O=C(COc1ccc(C2c3[nH]c4ccc(Cl)cc4c3CCN2C(=O)Oc2ccccc2)cc1)Oc1ccccc1` (stereo not shown) [Compound 366], the EC50 is > 1 µM.

Take `COCCOc1ccc(C2c3[nH]c4ccc(Cl)cc4c3CCN2C(=O)Oc2ccc(F)cc2)cc1` (stereo not shown) [Compound 388]: the EC50 was < 0.008 µM.

In the case of `O=C(Oc1ccc(Cl)cc1)N1CCc2c([nH]c3ccc(Cl)cc23)C1c1ccc(OCCCn2cncn2)cc1` (stereo not shown) [Compound 391], the EC50 is < 0.008 µM.

Take `COC(=O)c1ccc(C2c3[nH]c4ccc(Cl)cc4c3CCN2C(=O)Oc2ccc(F)cc2)cc1` (stereo not shown) [Compound 395]: the EC50 was < 0.008 µM.

For the molecule `O=C(Oc1ccc(F)cc1)N1CCc2c([nH]c3ccc(Br)cc23)C1c1ccc(C(F)(F)F)cc1` (stereo not shown) [Compound 397], the EC50 was < 0.008 µM.

As to `Cc1ccc(C2c3[nH]c4ccc(Br)cc4c3CCN2C(=O)Oc2ccc(F)cc2)cc1` (stereo not shown) [Compound 398], the EC50 is < 0.008 µM.

In the case of `COc1ccc(C2c3[nH]c4ccc(Cl)cc4c3CCN2C(=O)Oc2ccc(F)cc2)cc1` (stereo not shown) [Compound 401], the EC50 was < 0.008 µM.

On to `O=C(Oc1ccc(Cl)cc1)N1CCc2c([nH]c3ccc(Br)cc23)C1c1ccc(C(F)(F)F)cc1` (stereo not shown) [Compound 405], for which the EC50 was < 0.008 µM.

Regarding `C=CCOc1ccc(C2c3[nH]c4ccc(Cl)cc4c3CCN2C(=O)Oc2ccc(F)cc2)cc1` (stereo not shown) [Compound 409], the EC50 was < 0.008 µM.

As to `C=CCOc1ccc(C2c3[nH]c4ccc(Cl)cc4c3CCN2C(=O)Oc2ccccc2)cc1` (stereo not shown) [Compound 413], the EC50 is < 0.008 µM.

Consider `O=C(Oc1ccc(Cl)cc1)N1CCc2c([nH]c3ccc(Cl)cc23)C1c1ccc(OCCCn2ccnn2)cc1` (stereo not shown) [Compound 417], for which the EC50 is < 0.008 µM.

In the case of `COCCOc1ccc(C2c3[nH]c4ccc(Cl)cc4c3CCN2C(=O)Oc2ccc(Cl)cc2)cc1` (stereo not shown) [Compound 418], the EC50 was < 0.008 µM.

For the molecule `O=C1OCC(COc2ccc(C3c4[nH]c5ccc(Cl)cc5c4CCN3C(=O)Oc3ccc(Cl)cc3)cc2)O1` (stereo not shown) [Compound 421], the EC50 is < 0.008 µM.

With `O=C(Oc1ccc(Cl)cc1)N1CCc2c([nH]c3ccc(Cl)cc23)C1c1ccc(I)cc1` (stereo not shown) [Compound 428], the EC50 was < 0.008 µM.

As to `C=CCOc1ccc(C2c3[nH]c4ccc(Cl)cc4c3CCN2C(=O)Oc2ccc(OC)cc2)cc1` (stereo not shown) [Compound 432], the EC50 is < 0.008 µM.

For `COCCOc1ccc(C2c3[nH]c4ccc(Cl)cc4c3CCN2C(=O)Oc2ccccc2)cc1` (stereo not shown) [Compound 436], the EC50 is < 0.008 µM.

`O=C(Nc1ccc(C2c3[nH]c4ccc(Cl)cc4c3CCN2C(=O)Oc2ccc(Cl)cc2)cc1)c1ccco1` (stereo not shown) [Compound 437]: the EC50 was < 0.008 µM.

`O=C(Oc1ccc(Cl)cc1)N1CCc2c([nH]c3ccc(Cl)cc23)C1c1ccc(NC2CCOCC2)cc1` (stereo not shown) [Compound 440]: the EC50 is < 0.008 µM.

The values above are taken from patent US20120157401A1, “METHODS FOR TREATING NEUROFIBROMATOSIS” (PTC Therapeutics, Inc., priority 2009, published 2012).
